# Data reported in patent US4621090A, “Antifungal compositions” (Toyo Soda Manufacturing Co., Ltd., priority 1983, dated 1986).
# Like-named read-outs stand apart in the source and are kept apart here.
# What was measured:
# [1] = system: Trichophyton violaceum MTU-19021; test: Growth inhibition test; assay type: cell-based; conditions: read-out: Minimum inhibitory concentration
# ICR mice [2] = test: Skin irritation test using ICR mice; assay type: in vivo; conditions: Cutaneous, 1% direct application once a day for 14 consecutive days
# [3] = system: Histoplasma capsulatum MTU-16001; test: microbe, parasite or virus in culture; assay type: cell-based; conditions: MTU16001, 336 h, read-out: Minimum inhibitory concentration
# [4] = system: Blastomyces dermatitidis MTU-17009; test: Growth inhibition test; assay type: cell-based; conditions: MTU17009, 336 h, read-out: Minimum inhibitory concentration
# ICR mice [5] = test: Acute toxicity test using ICR mice; assay type: in vivo
# Procedure: The acute toxicity was tested by applying active ingredients of the antifungal compositions of this invention as shown in Table 4 to ICR mice (male, age-5 weeks, 25 g ±weight, 5 mice in each group). Observation continued for 3 more weeks starting from the last administration.
# [6] = system: Aspergillus fumigatus MTU-06002; test: Growth inhibition test; assay type: cell-based; conditions: MTU06002, 168 h, read-out: Minimum inhibitory concentration
# [7] = system: Aspergillus niger MTU-06051; test: Growth inhibition test; assay type: cell-based; conditions: read-out: Minimum inhibitory concentration
# [8] = system: Phialophora verrucosa MTU-23001; test: Growth inhibition test; assay type: cell-based; conditions: read-out: Minimum inhibitory concentration
# [9] = system: Cryptococcus neoformans MTU-13002; test: Growth inhibition test; assay type: cell-based; conditions: MTU13002, 48 h, read-out: Minimum inhibitory concentration
# [10] = system: Trichophyton mentagraphytes; test: Medical treatment of guinea pigs experimentally infected with Trichophyton mentagraphytes; conditions: 1% emulsion once a day; for Scope of symptoms (0-4): mean of 6 guinea pigs; for Reversed cultivation: skin cut into 10 pieces, cultivated 14 days at 27° C.
# [11] = system: Microsporum canis MTU-20010; test: Growth inhibition test; assay type: cell-based; conditions: read-out: Minimum inhibitory concentration
# [12] = system: Microsporum gypseum MTU-20005; test: Growth inhibition test; assay type: cell-based; conditions: Nannizzia gypsea, read-out: Minimum inhibitory concentration
# [13] = system: Epidermophyton floccosum MTU-21007; test: Growth inhibition test; assay type: cell-based; conditions: MTU21007, 336 h, read-out: Minimum inhibitory concentration
# [14] = system: Trichophyton mentagraphytes MTU-19031; test: Minimum inhibitory concentration, anti-Trichophyton mentagraphytes activity test, strain MTU-19031; assay type: cell-based; conditions: Trichophyton, MTU19031, Sabouraud's dextrose agar, 27° C., a week
# Procedure: (§1) The activity was tested by the 10 time-step dilution test, using the Sabouraud's dextrose agar culture medium (2% dextrose, 1% pepton and 1.5% agar; pH 6.5±). A platinum loopful (about 10 μl) spore suspension (prepared from a reserved strain of Trichlophyton mentagraphytes and containing 1×10^6 cells/ml) was applied in the form of drawn lines on a plate of a culture medium containing the active ingredients. The culture medium plate was kept at 27° C. for a week and then visually observed to see if any colonies had formed. The minimum inhibitory concentration was defined as the minimum concentration with which formation of distinct colonies on the culture medium plate was not observed.
# [15] = system: Trichophyton mentagraphytes MTU-19024; test: Minimum inhibitory concentration, anti-Trichophyton mentagraphytes activity test, strain MTU-19024; assay type: cell-based; conditions: Trichophyton, MTU19024, Sabouraud's dextrose agar, 27° C., a week
# Procedure: as §1
# [16] = system: Fonsecaea compactum MTU-22023; test: Growth inhibition test; assay type: cell-based; conditions: Fonsecaea compacta, read-out: Minimum inhibitory concentration
# [17] = system: Fusarium pedrosoi MTU-22009; test: Growth inhibition test; assay type: cell-based; conditions: MTU22009, 168 h, after 7 days cultivation at 27° C., read-out: Minimum inhibitory concentration
# [18] = Intraperitoneal, 100 mg/kg once a day for 6 consecutive days
# [19] = Intraperitoneal, 500 mg/kg once
# [20] = Oral, 500 mg/kg once a day for 6 consecutive days
# [21] = after 14 days cultivation at 27° C.
compound,measurement,setting,value
"COc1cccc(N(C)C(=S)Oc2ccc3c(c2)CCCC3)n1 [compound 11, O--5,6,7,8-Tetrahydro-2-naphthyl N--N--(6-methoxy-2-pyridyl)-N--methylthiocarbamate]",MIC,"[1]; MTU19021, 168 h",0.05 µg/mL
same,MIC,"[1]; MTU19021, 336 h",0.05 µg/mL
same,Number of skin irritation symptoms,ICR mice [2],0
same,MIC,[3],0.5 µg/mL
same,MIC,[4],0.5 µg/mL
same,Number of deaths,ICR mice [5]; [18],0
same,Number of symptomatic weight decrease,ICR mice [5]; [18],0
same,Number of deaths,ICR mice [5]; [19],0
same,Number of symptomatic weight decrease,ICR mice [5]; [19],0
same,Number of deaths,ICR mice [5]; [20],0
same,Number of symptomatic weight decrease,ICR mice [5]; [20],0
same,MIC,[6],0.5 µg/mL
same,MIC,"[7]; MTU06051, 168 h",0.05 µg/mL
same,MIC,"[7]; MTU06051, 336 h",0.05 µg/mL
same,MIC,"[8]; MTU23001, 168 h",0.5 µg/mL
same,MIC,"[8]; MTU23001, 336 h",0.5 µg/mL
same,MIC,[9],0.5 µg/mL
same,Scope of symptoms (0-4),[10]; 5 days after the infection,0.66
same,Scope of symptoms (0-4),[10]; 9 days after the infection,2.0
same,Scope of symptoms (0-4),[10]; 13 days after the infection,2.0
same,Scope of symptoms (0-4),[10]; 17 days after the infection,0
same,Scope of symptoms (0-4),[10]; 21 days after the infection,0
same,Reversed cultivation,[10],1/60
same,MIC,"[11]; MTU20010, 168 h",0.05 µg/mL
same,MIC,"[11]; MTU20010, 336 h",0.05 µg/mL
same,MIC,"[12]; MTU20005, 168 h",0.5 µg/mL
same,MIC,"[12]; MTU20005, 336 h",0.05 µg/mL
same,MIC,[13],0.05 µg/mL
same,MIC,[14],0.05 µg/mL
same,MIC,[15],0.05 µg/mL
same,MIC,"[16]; MTU22023, 168 h",0.5 µg/mL
same,MIC,"[16]; MTU22023, 336 h",0.5 µg/mL
"COc1cccc(N(C)C(=S)Oc2ccc3ccccc3c2)n1 [compound 7, O--2-Naphthyl N--methyl-N--(6-methoxy-2-pyridyl)thiocarbamate]",MIC,"[1]; MTU19021, 168 h, after 7 days cultivation at 27° C.",0.05 µg/mL
same,MIC,"[1]; MTU19021, 336 h, after 14 days cultivation at 27° C.",0.05 µg/mL
same,Number of skin irritation symptoms,ICR mice [2],0
same,MIC,[3],0.5 µg/mL
same,MIC,[4]; [21],0.5 µg/mL
same,Number of deaths,ICR mice [5]; [18],0
same,Number of symptomatic weight decrease,ICR mice [5]; [18],0
same,Number of deaths,ICR mice [5]; [19],0
same,Number of symptomatic weight decrease,ICR mice [5]; [19],0
same,Number of deaths,ICR mice [5]; [20],0
same,Number of symptomatic weight decrease,ICR mice [5]; [20],0
same,MIC,[6]; after 7 days cultivation at 27° C.,0.5 µg/mL
same,MIC,[17],0.5 µg/mL
same,MIC,"[7]; MTU06051, 168 h, after 7 days cultivation at 27° C.",0.05 µg/mL
same,MIC,"[7]; MTU06051, 336 h, after 14 days cultivation at 27° C.",0.05 µg/mL
same,MIC,"[8]; MTU23001, 168 h, after 7 days cultivation at 27° C.",0.5 µg/mL
same,MIC,"[8]; MTU23001, 336 h, after 14 days cultivation at 27° C.",0.5 µg/mL
same,MIC,[9]; after 2 days cultivation at 27° C.,0.05 µg/mL
same,Scope of symptoms (0-4),[10]; 5 days after the infection,0
same,Scope of symptoms (0-4),[10]; 9 days after the infection,1.33
same,Scope of symptoms (0-4),[10]; 13 days after the infection,1.66
same,Scope of symptoms (0-4),[10]; 17 days after the infection,0.66
same,Scope of symptoms (0-4),[10]; 21 days after the infection,0.33
same,Reversed cultivation,[10],1/60
same,MIC,"[11]; MTU20010, 168 h, after 7 days cultivation at 27° C.",0.05 µg/mL
same,MIC,"[11]; MTU20010, 336 h, after 14 days cultivation at 27° C.",0.05 µg/mL
same,MIC,"[12]; MTU20005, 168 h, after 7 days cultivation at 27° C.",0.05 µg/mL
same,MIC,"[12]; MTU20005, 336 h, after 14 days cultivation at 27° C.",0.05 µg/mL
same,MIC,[13]; [21],0.05 µg/mL
same,MIC,[14],0.05 µg/mL
same,MIC,[15],0.05 µg/mL
same,MIC,"[16]; MTU22023, 168 h, after 7 days cultivation at 27° C.",0.5 µg/mL
same,MIC,"[16]; MTU22023, 336 h, after 14 days cultivation at 27° C.",0.5 µg/mL
